The record followed here is patent US20130172345A1, “1-ACYL-4-(PHENOXY, BENZYLOXY, OR PHENYLAMINO)-1,2,3,4-TETRAHYDROQUINOLINE DERIVATIVES” (KOWA COMPANY, LTD., priority 2007, published 2013).

Structures can show the parent of a compound that is named as a salt.

Experiment [1] concerns K562 cells, human proerythroblast cells. Kind of experiment: Hemoglobin production in K562 cells (fluorescence of the porphyrin ring). The format is cell-based. Particulars: 144 h, test compound 6 μM, 3+3 days, non-stimulated state = 100%, read-out: production amount of hemoglobin, % of control (6 μM). In a few lines: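 K562 cells at 1×10^5 cells/mL in RPMI-1640 with 10% FBS, exposed to compound 3 days, medium exchanged, then 3 more days at 37 °C, 5% CO2. Hemoglobin from 3×10^5 cells measured as porphyrin fluorescence after boiling 30 min in 2 M oxalic acid; expressed as % of untreated control.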

Experiment [2] deals with HepG2 cells originating from human liver cancer. The experiment can be described thus: EPO production in HepG2 cells (EPO ELISA of culture supernatant, 4% oxygen, 48 hrs). It is filed as cell-based. Particulars: test compound 3 μM, oxygen 4%, non-stimulated state = 100%, read-out: EPO production amount, % of control (3 μM). How it is done: HepG2 cells originating from human liver cancer were seeded at a density of 1×10^4 cells per well on a 24-well plate by using minimum essential medium (MEM, manufactured by Sigma) comprising 10% bovine fetal serum. Next day, the medium was exchanged with Dulbecco's modified eagle medium (DMEM, manufactured by Sigma) comprising 10% bovine fetal serum lacking phenol red. Then, the test compound dissolved in DMSO was added thereto to obtain the final concentration of 3 μM or 10 μM while having 400 μl of the medium per well. The cells were incubated for 48 hrs in a CO2 incubator which had been adjusted to have oxygen concentration of 4%, followed by collecting the culture supernatant. The EPO concentration in the culture supernatant was immediately measured by using EPO ELISA kit (manufactured by Roche Diagnostics K.K.). Specific procedures were carried out according to the manufacturer's protocol included in the kit.
When EPO production amount in non-stimulated state, i.e., without addition of any compound, was 100%, the EPO production amount induced by each compound was calculated (% of control).
(In general: ELISA stands for enzyme-linked immunosorbent assay.)

In the case of `COCc1ccc(NC2CC(C)N(C(C)=O)c3ccccc32)cc1` (stereo not shown) [Compound 69, 1-acetyl-4-[(4-methoxymethylphenyl)amino]-2-methyl-1,2,3,4-tetrahydroquinoline], in experiment [1], the activity at 6 µM was determined as 407%. In experiment [2], the activity at 3 µM came out at 150%.
Consider `CC(=O)N1c2ccccc2[C@H](Oc2cc(F)cc(F)c2)C[C@@H]1C` (relative stereo) [Compound 62, cis-1-acetyl-4-(3,5-difluorophenoxy)-2-methyl-1,2,3,4-tetrahydroquinoline], for which the activity at 6 µM in experiment [1] stood at 168%. Also, in experiment [2], the activity at 3 µM was 193%.
In the same order, the values of `CC(=O)N1c2ccc(C#N)cc2C(Nc2ccccc2)CC1C` (stereo not shown) [Compound 14, 1-acetyl-6-cyano-2-methyl-4-phenylamino-1,2,3,4-tetrahydroquinoline] are 440% and 257%.
Regarding `CC(=O)N1c2ccccc2[C@H](Nc2ccccc2F)C[C@@H]1C` (relative stereo) [Compound 22, cis-1-acetyl-4-[(2-fluorophenyl)amino]-2-methyl-1,2,3,4-tetrahydroquinoline], in experiment [1], the activity at 6 µM stood at 383%. Also, the activity at 3 µM in experiment [2] is 150%.
Consider `CC(=O)N1c2ccc(C(=O)O)cc2C(Nc2ccc(Cl)cc2)CC1C` (stereo not shown) [Compound 42, 1-acetyl-4-[(4-chlorophenyl)amino]-2-methyl-1,2,3,4-tetrahydroquinoline-6-carboxylic acid], for which, in experiment [1], the activity at 6 µM turned out to be 303%. In experiment [2], the activity at 3 µM was 102%.
In the same order, the values of `CC(=O)N1c2ccccc2C(Nc2ccc(OC(C)C)cc2)CC1C` (stereo not drawn) [Compound 18, cis-1-acetyl-4-[(4-isopropoxyphenyl)amino]-2-methyl-1,2,3,4-tetrahydroquinoline.hydrochloride] are 374% and 178%.
In the case of `CC(=O)N1c2ccc(F)cc2C(Nc2ccc(CC(N)=O)cc2)CC1C` (stereo not shown) [Compound 124, 1-acetyl-4-[(4-carbamoylmethylphenyl)amino]-6-fluoro-2-methyl-1,2,3,4-tetrahydroquinoline], the activity at 6 µM in experiment [1] amounted to 119%. In addition, the activity at 3 µM in experiment [2] stood at 147%.
As to `CC(=O)N1c2ccc(F)cc2C(Nc2ccc(CC(=O)N(C)C)cc2)CC1C` (stereo not shown) [Compound 125, 1-acetyl-4-[4-(N,N-dimethylaminocarbonylmethyl)phenylamino]-6-fluoro-2-methyl-1,2,3,4-tetrahydroquinoline], the activity at 6 µM in experiment [1] turned out to be 118%. Moreover, in experiment [2], the activity at 3 µM is 148%.
The matching figures for `CC(=O)N1c2ccccc2C(Nc2ccccc2)CC1C` (stereo not shown) [Compound 1, 1-acetyl-2-methyl-4-phenylamino-1,2,3,4-tetrahydroquinoline]: 575% and 235%.
As for `CC(=O)N1c2ccc(N3CCN(C(=O)C4CCCCC4)CC3)cc2C(Nc2ccc(Cl)cc2)CC1C` (stereo not shown) [Compound 85, 1-acetyl-4-[(4-chlorophenyl)amino]-6-[(4-cyclohexylcarbonyl)piperazino]-2-methyl-1,2,3,4-tetrahydroquinoline], the activity at 6 µM in experiment [1] amounted to 189%. For the same compound, the activity at 3 µM in experiment [2] came out at 147%.
In the same order, the values of `CC(=O)N1c2ccc(C(N)=O)cc2C(Nc2ccc(CC#N)cc2)CC1C` (stereo not shown) [Compound 104, 1-acetyl-4-[(4-cyanomethylphenyl)amino]-2-methyl-1,2,3,4-tetrahydroquinoline-6-carboxamide] are 536% and 204%.
The matching figures for `CC(=O)N1c2ccccc2C(Nc2ccc(CC(=O)O)cc2)CC1C` (stereo not shown) [Compound 71, 1-acetyl-4-[(4-carboxymethylphenyl)amino]-2-methyl-1,2,3,4-tetrahydroquinoline]: 150% and 149%.
In the case of `CC(=O)N1c2cc(Br)ccc2[C@H](Nc2ccccc2)C[C@@H]1C` (relative stereo) [Compound 23, cis-1-acetyl-7-bromo-2-methyl-4-phenylamino-1,2,3,4-tetrahydroquinoline], the activity at 6 µM in experiment [1] is 544%. Moreover, the activity at 3 µM in experiment [2] was 135%.
`CC(=O)N1c2ccccc2[C@H](Nc2ccc(N3CCN(S(C)(=O)=O)CC3)cc2)C[C@@H]1C` (relative stereo) [Compound 78, cis-1-acetyl-4-{[4-(4-methanesulfonylpiperazinyl)phenyl]amino}-2-methyl-1,2,3,4-tetrahydroquinoline]: the activity at 6 µM in experiment [1] turned out to be 210%. In experiment [2], the activity at 3 µM was determined as 217%.
For the compound `CC(=O)N1c2ccc(Br)cc2C(Nc2ccccc2)CC1C` (stereo not shown) [Compound 13, 1-acetyl-6-bromo-2-methyl-4-phenylamino-1,2,3,4-tetrahydroquinoline], the activity at 6 µM in experiment [1] worked out at 365%. Also, the activity at 3 µM in experiment [2] was 229%.
The matching figures for `CC(=O)N1c2ccccc2C(Nc2ccc(F)cc2)CC1C` (stereo not shown) [Compound 15, 1-acetyl-4-[(4-fluorophenyl)amino]-2-methyl-1,2,3,4-tetrahydroquinoline]: 409% and 348%.
Consider `CCOC(=O)c1ccc2c(c1)[C@H](Nc1ccc(Cl)cc1)C[C@H](C)N2C(C)=O` (relative stereo) [Compound 41, ethyl cis-1-acetyl-4-[(4-chlorophenyl)amino]-2-methyl-1,2,3,4-tetrahydroquinoline-6-carboxylate], for which, in experiment [1], the activity at 6 µM turned out to be 529%. Further, the activity at 3 µM in experiment [2] came out at 119%.
As for `CC(=O)N1c2ccccc2C(Nc2ccc(NS(C)(=O)=O)cc2)CC1C` (stereo not shown) [Compound 39, 1-acetyl-4-[(4-methanesulfonylamidephenyl)amino]-2-methyl-1,2,3,4-tetrahydroquinoline], the activity at 6 µM in experiment [1] came out at 327%. The activity at 3 µM in experiment [2] stood at 131%.
The matching figures for `CC(=O)N1c2cc(NS(C)(=O)=O)ccc2C(Nc2ccc(Cl)cc2)CC1C` (stereo not shown) [Compound 107, 1-acetyl-4-[(4-chlorophenyl)amino]-7-methanesulfonylamino-2-methyl-1,2,3,4-tetrahydroquinoline.hydrochloride]: 139% and 130%.
The matching figures for `CCOC(=O)Nc1ccc2c(c1)C(Nc1ccc(Cl)cc1)CC(C)N2C(C)=O` (stereo not shown) [Compound 97, 1-acetyl-4-[(4-chlorophenyl)amino]-2-methyl-1,2,3,4-tetrahydroquinoline-6-ethylcarbamate]: 553% and 264%.
For `CC(=O)N1c2ccccc2C(Nc2ccc(Cl)cc2)CC1C` (stereo not shown) [Compound 8, 1-acetyl-4-[(4-chlorophenyl)amino]-2-methyl-1,2,3,4-tetrahydroquinoline], in experiment [1], the activity at 6 µM is 412%. In experiment [2], the activity at 3 µM is 248%.
Consider `CC(=O)N1c2ccccc2[C@H](Oc2ccc(F)cc2F)C[C@@H]1C` (relative stereo) [Compound 30, cis-1-acetyl-4-(2,4-difluorophenoxy)-2-methyl-1,2,3,4-tetrahydroquinoline], for which the activity at 6 µM in experiment [1] stood at 136%. For the same compound, in experiment [2], the activity at 3 µM came out at 339%.
The matching figures for `CC(=O)N1c2ccc(CO)cc2[C@H](Nc2ccc(Cl)cc2)C[C@@H]1C` (relative stereo) [Compound 121, cis-1-acetyl-4-[(4-chlorophenyl)amino]-6-hydroxymethyl-2-methyl-1,2,3,4-tetrahydroquinoline]: 149% and 222%.
In the same order, the values of `CCC(=O)N1c2ccccc2C(Nc2ccccc2)CC1C` (stereo not shown) [Compound 3, 2-methyl-4-phenylamino-1-propionyl-1,2,3,4-tetrahydroquinoline] are 912% and 187%.
The matching figures for `CC(=O)N1c2ccc(F)cc2C(Nc2ccc(F)cc2)CC1C` (stereo not shown) [Compound 5, 1-acetyl-6-fluoro-4-[(4-fluorophenyl)amino]-2-methyl-1,2,3,4-tetrahydroquinoline]: 245% and 205%.
Turning to `C[C@H]1C[C@@H](Nc2ccc(F)cc2)c2cc(F)ccc2N1C(=O)C1CCCCC1` (relative stereo) [Compound 6, cis-1-cyclohexanecarbonyl-6-fluoro-4-[(4-fluorophenyl)amino]-2-methyl-1,2,3,4-tetrahydroquinoline], in experiment [1], the activity at 6 µM came to 326%. For the same compound, the activity at 3 µM in experiment [2] came to 225%.
In the same order, the values of `CC(=O)N1c2c(F)cccc2[C@H](Nc2ccccc2F)C[C@@H]1C` (relative stereo) [Compound 4, cis-1-acetyl-8-fluoro-4-[(2-fluorophenyl)amino]-2-methyl-1,2,3,4-tetrahydroquinoline] are 92% and 163%.
In the case of `CC(=O)N1c2ccccc2C(Nc2ccc(C(C)C)cc2)CC1C` (stereo not shown) [Compound 21, 1-acetyl-4-[(4-isopropylphenyl)amino]-2-methyl-1,2,3,4-tetrahydroquinoline], in experiment [1], the activity at 6 µM worked out at 301%. Further, in experiment [2], the activity at 3 µM was found to be 231%.
In the same order, the values of `CC(=O)N1c2ccc(F)cc2[C@H](Oc2ccc(F)cc2)C[C@@H]1C` (relative stereo) [Compound 34, cis-1-acetyl-4-(4-fluorophenoxy)-6-fluoro-2-methyl-1,2,3,4-tetrahydroquinoline] are 257% and 288%.
